Data as given in US5719291A, “Cyclohexane derivatives” (Hoffmann-La Roche Inc., priority 1991, dated 1998).
Values after ≈ are worked out from the molar mass of the structure shown. Counter-ions that a name gives are not always drawn. Like-named read-outs stand apart in the source and are kept apart here.

Legend:
Format in all cases: cell-based
Candida albicans [1] = experiment: In vitro antifungal activity, IC80 (Method B); details: 1-2 days, 27° C., read-out: Antifungal activity IC80
Procedure: (§1) The in vitro antifungal activities of the representative compounds of the present invention shown in Table 1 and Table 2 were measured by determining the minimal inhibitory concentrations (MIC: Method A) or 80% growth inhibition concentration (IC80 : Method B) respectively. MIC is defined as the concentration of an antifungal at which growth of fungi is not observed and IC80 is the concentration where cell turbidity measured at OD630 is reduced by 80%.
(§2) Antifungal activities were determined by either method A or B (see below) using microtest plates according NCCLS with minor modifications (Galgiani et at., Antimicrob. Agents Chemother. 33, 731 (1989)).
(§3) (Method B) The medium for yeast was buffered to pH 7.0 with 0.25% K2 HPO4 in Yeast Nitrogen Base (Difco Lab.). For the filamentous fungi, 0.2% of low melting point agar was supplemented to the above medium. Inoculum size was 1×10^4 cells/ml, and incubation was carried out for 1-2 days at 27° C. Fluconazole (Pfizer) was used as reference.

C. neoformans = experiment: In vitro antifungal activity, IC80 (Method B); details: Cryptococcus neoformans, 1-2 days, 27° C., read-out: Antifungal activity IC80
Procedure: as §1, §2, §3

A. fumigatus = experiment: In vitro antifungal activity, IC80 (Method B); details: Aspergillus fumigatus, 1×10^4 cells/ml, 1-2 days, 27° C., 0.2% agar, read-out: Antifungal activity IC80
Procedure: as §1, §2, §3

Candida albicans [2] = experiment: In vitro antifungal activity, MIC (Method A); details: 1×10^5 cells/ml, 3 days, 27° C., pH 7.0
Procedure: (§4) The in vitro antifungal activities of representative compounds of the present invention were measured by determining the minimal inhibitory concentration (MIC), which is the concentration of an antifungal at which no fungal growth can be observed.
(§5) The MICs were determined by the microbroth dilution procedure according to NCCLS with the following minor modifications (Galgiani et al., Antimicrob. Agents Chemother., 33, 731 (1989). The medium was solidified with 0.2% low melting point agarose and buffered to pH 7.0 with 0.25%: K2 HPO4 in Yeast Nitrogen Base (Difco Lab.). Inoculum size was 1×10^5 cells/ml, and incubation was carried out for 3 days at 27° C. The MICs ([…]) are shown in Table 1. The reference compound is compound (IA) in U.S. Pat. No. 4,952,604. The compounds used are identified by reference to the Examples in which they were prepared.
as §1, §2
(§6) (Method A) The medium was solidified with 0.2% low melting point agarose and buffered to pH 7.0 with 0.25% K2 HPO4 in Yeast Nitrogen Base (Difco Lab.). Inoculum size was 1×10^5 cells/ml, and incubation was carried out for 3 days at 27° C. The reference compound is compound (IA) in U.S. Pat. No. 4,952,604.

Aspergillus fumigatus = experiment: In vitro antifungal activity, MIC (Method A); details: 1×10^5 cells/ml, 3 days, 27° C., pH 7.0
Procedure: as §4, §5, §1, §2, §6

Cryptococcus neoformans = experiment: In vitro antifungal activity, MIC (Method A); details: 1×10^5 cells/ml, 3 days, 27° C., pH 7.0
Procedure: as §4, §5, §1, §2, §6

[3] = pH 7, Candida albicans CY1002, 1×10^4 cells/ml
[4] = pH 7, Candida albicans CY1005, 1×10^4 cells/ml
[5] = pH 7, Candida albicans CY3003, 1×10^4 cells/ml
[6] = pH 7, C. neoformans CY1057, 1×10^4 cells/ml
[7] = pH 7, C. neoformans CY1059, 1×10^4 cells/ml

Row | Molecule | IC80 (Candida albicans [1]; [3]) | IC80 (Candida albicans [1]; [4]) | IC80 (Candida albicans [1]; [5]) | IC80 (C. neoformans; [6]) | IC80 (C. neoformans; [7]) | IC80 (A. fumigatus; A. fumigatus CF1003) | IC80 (A. fumigatus; A. fumigatus CF1004) | Antifungal activity MIC (Candida albicans [2]; Candida albicans CY1002) | Antifungal activity MIC (Candida albicans [2]; Candida albicans CY1005) | Antifungal activity MIC (Candida albicans [2]; Candida albicans CY3003) | Antifungal activity MIC (Aspergillus fumigatus; Aspergillus fumigatus CF1003) | Antifungal activity MIC (Aspergillus fumigatus; Aspergillus fumigatus CF1004) | Antifungal activity MIC (Aspergillus fumigatus; Aspergillus fumigatus CF1023) | Antifungal activity MIC (Cryptococcus neoformans; Cryptococcus neoformans CY1057) | Antifungal activity MIC (Cryptococcus neoformans; Cryptococcus neoformans CY1059) | Antifungal activity MIC (Cryptococcus neoformans; Cryptococcus neoformans CY1061)
1 | CO[C@@H]1[C@@H](Cn2cncn2)[C@H](CCc2ccc3ccccc3c2)CCC1(C)C [Example 75, 1-[[(1R,2R,6R)-2-methoxy-3,3-dimethyl-6-(2-b-naphthylethyl)cyclohexyl]methyl]-1H,1,1,4-triazole] | 0.18 µg/mL (≈ 0.477 µM) | 0.2 µg/mL (≈ 0.53 µM) | 0.34 µg/mL (≈ 0.901 µM) | 0.19 µg/mL (≈ 0.503 µM) | 1.3 µg/mL (≈ 3.44 µM) | > 200 µg/mL | > 200 µg/mL |  |  |  |  |  |  |  |  | 
2 | CO[C@@H]1[C@@H](Cn2cncn2)[C@H](CCc2ccc(F)cc2F)CCC1(C)C [Example 80, 1-[[(1R,2R,6S)-6-(2,4-difluorophenethyl)-2-methoxy-3,3-dimethylcyclohexyl]methyl]-1H-1,2,4-triazole] | 0.35 µg/mL (≈ 0.963 µM) | 0.65 µg/mL (≈ 1.79 µM) | 0.19 µg/mL (≈ 0.523 µM) | 11 µg/mL (≈ 30.3 µM) | 12 µg/mL (≈ 33 µM) | 93 µg/mL (≈ 256 µM) | 40 µg/mL (≈ 110 µM) |  |  |  |  |  |  |  |  | 
3 | CO[C@@H]1[C@@H](Cn2cncn2)[C@H](CCc2ccc(C(F)(F)F)cc2)CCC1(C)C [Example 77] | 0.16 µg/mL (≈ 0.405 µM) | 0.18 µg/mL (≈ 0.455 µM) | 0.093 µg/mL (≈ 0.235 µM) | 0.39 µg/mL (≈ 0.986 µM) | 3.2 µg/mL (≈ 8.09 µM) | > 200 µg/mL | > 200 µg/mL |  |  |  |  |  |  |  |  | 
4 | COc1ccc(CC[C@@H]2CCC(C)(C)[C@H](OC)[C@H]2NC(=O)CN)cc1 [Example 55, (1R,2S,3S)-2-[(aminoacetyl)amino]-4-47dimethyl-3-methoxy-1-[2-(4-methoxyphenyl)ethyl]cyclohexane trifluoroacetic acid salt] | 49 µg/mL | 69 µg/mL | 50 µg/mL | 170 µg/mL | 150 µg/mL | > 200 µg/mL | > 200 µg/mL |  |  |  |  |  |  |  |  | 
5 | CO[C@@H]1[C@@H](Cn2cncn2)[C@H](CCc2ccc(OC(F)(F)F)cc2)CCC1(C)C [Example 78, 1-[[(1R,2R,6R)-6-(p-trifluoromethoxyphenethyl)-2-methoxy-3,3-dimethylcyclohexyl]methyl]-1H-1,2,4-triazole] | 0.03 µg/mL (≈ 0.0729 µM) | 0.093 µg/mL (≈ 0.226 µM) | 0.071 µg/mL (≈ 0.173 µM) | 8.4 µg/mL (≈ 20.4 µM) | 21 µg/mL (≈ 51 µM) | > 200 µg/mL | > 200 µg/mL |  |  |  |  |  |  |  |  | 
6 | CO[C@@H]1[C@@H](Cn2cncn2)[C@H](CCc2ccc(N3CCCC3)cc2)CCC1(C)C [Example 82, 1-[[(1R,2R,6R)-2-methoxy-3,3-dimethyl-6-[2-(p-pyrrolidinophenyl)ethyl]cyclohexyl]methyl]-1H,1,2,4-triazole] | 0.15 µg/mL (≈ 0.378 µM) | 0.35 µg/mL (≈ 0.883 µM) | 0.17 µg/mL (≈ 0.429 µM) | > 200 µg/mL | > 200 µg/mL | > 200 µg/mL | > 200 µg/mL |  |  |  |  |  |  |  |  | 
7 | COc1ccc(CC[C@@H]2CCC(C)(C)[C@H](OC)[C@H]2Cn2cncn2)cc1 [Example 79, 1-[[(1R,2R,6R)-2-methoxy-6-(p-methoxyphenethyl)-3,3-dimethylcyclohexyl]methyl]-1H,1,2,4-triazole] | 0.023 µg/mL (≈ 0.0643 µM) | 0.024 µg/mL (≈ 0.0671 µM) | 0.02 µg/mL (≈ 0.0559 µM) | 0.86 µg/mL (≈ 2.41 µM) | 4.7 µg/mL (≈ 13.1 µM) | > 200 µg/mL | > 200 µg/mL |  |  |  |  |  |  |  |  | 
8 | CCc1ccc(OC[C@@H]2CCC(C)(C)[C@H](OC)[C@H]2Cn2cncn2)cc1 [Example 83, 1-[[(1R,2R,6R)-2-methoxy-3,3-dimethyl-6-(4-ethylphenoxy)methyl]methyl]-1H,1,2,4-triazole] | 0.31 µg/mL (≈ 0.867 µM) | 0.24 µg/mL (≈ 0.671 µM) | 0.59 µg/mL (≈ 1.65 µM) | 0.21 µg/mL (≈ 0.587 µM) | 0.19 µg/mL (≈ 0.531 µM) | > 200 µg/mL | > 200 µg/mL |  |  |  |  |  |  |  |  | 
9 | CO[C@@H]1[C@@H](Cn2cncn2)[C@H](CSc2ccc(Cl)cc2)CCC1(C)C [Example 73, 1-[[(1R,2R,6R)-6-[(4-chlorophenylthio)methyl]-2-methoxy-3,3-dimethylcyclohexyl]methyl]-1H-1,2,4-triazole] | 0.008 µg/mL (≈ 0.0211 µM) | 0.011 µg/mL (≈ 0.029 µM) | 0.02 µg/mL (≈ 0.0526 µM) | 5.8 µg/mL (≈ 15.3 µM) | 6.1 µg/mL (≈ 16.1 µM) | 23 µg/mL (≈ 60.5 µM) | 23 µg/mL (≈ 60.5 µM) |  |  |  |  |  |  |  |  | 
10 | CCCCCCCCO[C@@H]1CCC(C)(C)[C@H](OC)[C@H]1NC(=O)CN [Example 54, (1R,2S,3S)-2-[(aminoacetyl)amino-4,4-dimethyl-3-methoxy-1-octyloxycyclohexanetrifluoroacetic acid salt] | 18 µg/mL | 12 µg/mL | 18 µg/mL | 46 µg/mL | 47 µg/mL | 150 µg/mL | 140 µg/mL |  |  |  |  |  |  |  |  | 
11 | CO[C@@H]1[C@@H](Cn2cncn2)[C@H](CCc2ccc(C)cc2)CCC1(C)C [Example 74] | 0.076 µg/mL (≈ 0.223 µM) | 0.093 µg/mL (≈ 0.272 µM) | 0.038 µg/mL (≈ 0.111 µM) | 0.46 µg/mL (≈ 1.35 µM) | 3.8 µg/mL (≈ 11.1 µM) | 20 µg/mL (≈ 58.6 µM) | 24 µg/mL (≈ 70.3 µM) |  |  |  |  |  |  |  |  | 
12 | CO[C@@H]1[C@@H](Cn2cncn2)[C@H](CCc2ccc(Cl)cc2)CCC1(C)C [Example 72, 1-[[(1R,2R,6R)-6-[2-(4-chlorophenyl)ethyl]-2-methoxy-3,3-dimethylcyclohexyl]methyl]-1H-1,2,4-triazole] | 0.095 µg/mL (≈ 0.262 µM) | 0.094 µg/mL (≈ 0.26 µM) | 0.06 µg/mL (≈ 0.166 µM) | 1.3 µg/mL (≈ 3.59 µM) | 4.8 µg/mL (≈ 13.3 µM) | 14 µg/mL (≈ 38.7 µM) | 12 µg/mL (≈ 33.2 µM) |  |  |  |  |  |  |  |  | 
13 | (2S,3R,4S,5R)-5-butoxy-4-methoxy-2-[(E)-1-nonenyl]tetra-hydro-2H-pyran-3-ylglycinate trifluoroacetic acid salt [Example 35] |  |  |  |  |  |  |  | 25 µg/mL | 25 µg/mL | 50 µg/mL | 25 µg/mL | 25 µg/mL | 25 µg/mL | 3.13 µg/mL | 6.25 µg/mL | 12.5 µg/mL
